In patent US8084481B2, “Substituted arylimidazolone and triazolone as inhibitors of vasopressin receptors” (Bayer Pharma Aktiengesellschaft, priority 2006, dated 2011):

What was measured:
human V1a receptor = target: T1, human V1a receptor (Homo sapiens, UniProt P37288); test: Cellular in vitro test for determination of the vasopressin receptor activity (aequorin luminescence, CHO cells), human V1a; assay type: cell-based; conditions: cell line transfected with the human V1a receptor, antagonism of [Arg8]-vasopressin, read-out: IC50 hV1a
T1 construct: expressed in transfected cells; host or cells: CHO K1 (ATCC), constitutively expressing a modified aequorin
Source text: (§1) B-1. Cellular In Vitro Test for Determination of the Vasopressin Receptor Activity
(§2) The identification of agonists and antagonists of the V1a- and V2-vasopressin receptors in man and the rat and the quantification of the activity of the compounds according to the invention are effected by means of recombinant cell lines. These cells are originally derived from the ovarian epithelial cells of the hamster (Chinese Hamster Ovary, CHO K1, ATCC: American Type Culture Collection, Manassas, Va. 20108, USA). The test cell lines constitutively express a modified form of the calcium-sensitive photoprotein aequorin, which after reconstitution with the cofactor coelenterazine emits light on an increase in the free calcium concentrations [Rizzuto R, Simpson A W, Brini M, Pozzan T, Nature 358, 325-327 (1992)]. In addition, the cells are stably transfected with human or rat V1a- or V2 receptors. In the case of the Gs-coupled V2 receptors, the cells are stably transfected with a further gene which codes for the promiscuous Gα16-Protein [Amatruda T T, Steele D A, Slepak V Z, Simon M I, Proceedings of the National Academy of Science USA 88, 5587-5591 (1991)]. The resulting vasopressin receptor test cells react to stimulation of the recombinantly expressed vasopressin receptors with an intracellular release of calcium ions, which can be quantified by the resulting aequorin luminescence with a suitable luminometer [Milligan G, Marshall F, Rees S, Trends in Pharmacological Sciences 17, 235-237 (1996)].
(§3) On the day before the text, the cells are plated out in culture medium (DMEM, 10% FCS, 2 mM glutamine, 10 mM HEPES) in 384-well microtitre plates and kept in a cell incubator (96% atmospheric humidity, 5% v/v CO2, 37° C.). On the test day, the culture medium is replaced by a Tyrode solution (140 mM NaCl, 5 mM KCl, 1 mM MgCl2, 2 mM CaCl2, 20 mM glucose, 20 mM HEPES) which in addition contains the cofactor coelenterazine (50 μM), and the microtitre plate is then incubated for a further 3-4 hours. The test substances in various concentrations are placed beforehand in the wells of the microtitre plate for 10 to 20 minutes, before the agonist [Arg^8]-vasopressin is added and the resulting light signal immediately measured in the luminometer. The IC50 values are calculated by means of the computer program GraphPad PRISM (Version 3.02).

human V2 receptor = target: T2, human V2 receptor (Homo sapiens, UniProt P30518); test: Cellular in vitro test for determination of the vasopressin receptor activity (aequorin luminescence, CHO cells), human V2; assay type: cell-based; conditions: cell line transfected with the human V2 receptor, antagonism of [Arg8]-vasopressin, read-out: IC50 hV2
T2 construct: expressed in transfected cells; host or cells: CHO K1 (ATCC), constitutively expressing a modified aequorin and stably co-transfected with promiscuous G-alpha-16
Source text: as §1, §2, §3

T2 sequence (P30518 whole entry): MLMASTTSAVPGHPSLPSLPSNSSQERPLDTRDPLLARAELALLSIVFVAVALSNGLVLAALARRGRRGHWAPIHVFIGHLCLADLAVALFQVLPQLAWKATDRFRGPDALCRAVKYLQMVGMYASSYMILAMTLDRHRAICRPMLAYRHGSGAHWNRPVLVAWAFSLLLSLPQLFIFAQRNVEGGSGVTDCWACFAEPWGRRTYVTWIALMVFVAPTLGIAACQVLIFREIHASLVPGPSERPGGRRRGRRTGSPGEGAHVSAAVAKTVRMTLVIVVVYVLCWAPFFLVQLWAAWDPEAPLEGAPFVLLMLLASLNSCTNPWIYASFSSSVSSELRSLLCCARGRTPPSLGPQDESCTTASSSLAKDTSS
T1 sequence (P37288 whole entry): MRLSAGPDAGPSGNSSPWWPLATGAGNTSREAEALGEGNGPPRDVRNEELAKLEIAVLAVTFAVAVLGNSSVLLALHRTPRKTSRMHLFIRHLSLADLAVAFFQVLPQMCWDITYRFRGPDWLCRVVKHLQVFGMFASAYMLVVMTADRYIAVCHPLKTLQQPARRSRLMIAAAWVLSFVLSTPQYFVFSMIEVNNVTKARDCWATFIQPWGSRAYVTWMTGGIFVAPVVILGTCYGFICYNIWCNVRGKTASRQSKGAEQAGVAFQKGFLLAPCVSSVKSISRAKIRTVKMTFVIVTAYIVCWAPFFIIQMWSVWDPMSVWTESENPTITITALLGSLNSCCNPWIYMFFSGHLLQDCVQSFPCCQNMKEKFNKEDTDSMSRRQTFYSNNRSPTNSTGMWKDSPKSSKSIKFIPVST

COCCn1c(-c2ccc(Cl)cc2)nn(CC(=O)NC(C(=O)N(C)C)c2cccc(C(F)(F)F)c2)c1=O (stereo not shown) [Example 348]
IC50 (human V1a receptor): 4 nM
IC50 (human V2 receptor): 217 nM

O=C(Cn1nc(-c2ccc(Cl)cc2)n(CC(O)C(F)(F)F)c1=O)NCCc1ccccc1OC(F)(F)F (stereo not shown) [Example 359]
IC50 (human V1a receptor): 19 nM
IC50 (human V2 receptor): 9 nM

O=C(Cn1nc(-c2ccc(Cl)cc2)n(CC(O)C(F)(F)F)c1=O)NCC(F)(F)c1cccc(C(F)(F)F)c1 (stereo not shown) [Example 364]
IC50 (human V1a receptor): 22 nM
IC50 (human V2 receptor): 8 nM

CC(C)(NC(=O)Cn1nc(-c2ccc(Cl)cc2)n(CC(F)(F)F)c1=O)c1cccc(C(F)(F)F)c1 [Example 386]
IC50 (human V1a receptor): 611 nM
IC50 (human V2 receptor): 23 nM

CSc1ccccc1CNC(=O)Cn1nc(-c2ccc(Cl)cc2)n(Cc2ccccc2F)c1=O [Example 394, 2-[3-(4-chlorophenyl)-4-(2-fluorobenzyl)-5-oxo-4,5-dihydro-1H-1,2,4-triazol-1-yl]-N-[2-(methylthio)benzyl]-acetamide]
IC50 (human V1a receptor): 19 nM
IC50 (human V2 receptor): 19 nM

CC(=O)Cn1c(-c2ccc(Cl)cc2)nn(CC(=O)NCc2cccc(C(F)(F)F)c2)c1=O [Example 415]
IC50 (human V1a receptor): 870 nM
IC50 (human V2 receptor): 26 nM

C#CCn1c(-c2ccc(Cl)cc2)nn(CC(=O)NCCc2ccccc2C(F)(F)F)c1=O [Example 421]
IC50 (human V1a receptor): 32 nM
IC50 (human V2 receptor): 88 nM

C=C(C)Cn1c(-c2ccc(Cl)cc2)nn(CC(=O)NC(C)(C)c2cccc(C(F)(F)F)c2)c1=O [Example 423, 2-[3-(4-chlorophenyl)-4-(2-methylprop-2-en-1-yl)-5-oxo-4,5-dihydro-1H-1,2,4-triazol-1-yl]-N-1-methyl-1-[3-(trifluoromethyl)phenyl]ethyl-acetamide]
IC50 (human V1a receptor): 157 nM
IC50 (human V2 receptor): 15 nM

CC(C)(NC(=O)Cn1nc(-c2ccc(Cl)cc2)n(Cc2cccc(F)c2)c1=O)c1cccc(C(F)(F)F)c1 [Example 433, 2-[3-(4-chlorophenyl)-4-(3-fluorobenzyl)-5-oxo-4,5-dihydro-1H-1,2,4-triazol-1-yl]-N-1-methyl-1-[3-(trifluoromethyl)phenyl]ethyl-acetamide]
IC50 (human V1a receptor): 199 nM
IC50 (human V2 receptor): 9 nM

CCOC(=O)Cn1c(-c2ccc(Cl)cc2)nn(CC(=O)NCCc2ccccc2C(F)(F)F)c1=O [Example 439]
IC50 (human V1a receptor): 58 nM
IC50 (human V2 receptor): 77 nM

CCC(=O)Cn1c(-c2ccc(Cl)cc2)nn(CC(=O)NC(C)(C)c2cccc(C(F)(F)F)c2)c1=O [Example 443, 2-[3-(4-chlorophenyl)-5-oxo-4-(2-oxobutyl)-4,5-dihydro-1H-1,2,4-triazol-1-yl]-N-1-methyl-1-[3-(trifluoromethyl)phenyl]ethyl-acetamide]
IC50 (human V1a receptor): 93 nM
IC50 (human V2 receptor): 23 nM

C/C=C/n1c(-c2ccc(Cl)cc2)nn(CC(=O)NCc2cccc(C(F)(F)F)c2)c1=O [Example 457, 2-{3-(4-chlorophenyl)-5-oxo-4-[(1E)-prop-1-en-1-yl]-4,5-dihydro-1H-1,2,4-triazol-1-yl}-N-[3-(trifluoromethyl)benzyl]-acetamide]
IC50 (human V1a receptor): 43 nM
IC50 (human V2 receptor): 29 nM

CC(C)(NC(=O)Cn1nc(-c2ccc(Cl)cc2)n(CCN2CCOCC2)c1=O)c1cccc(C(F)(F)F)c1 [Example 462, 2-[3-(4-chlorophenyl)-4-(2-morpholin-4-ylethyl)-5-oxo-4,5-dihydro-1H-1,2,4-triazol-1-yl]-N-{1-methyl-1-[3-(trifluoromethyl)phenyl]ethyl}-acetamide]
IC50 (human V1a receptor): 373 nM
IC50 (human V2 receptor): 46 nM

CC(C)(NC(=O)Cn1nc(-c2ccc(Cl)cc2)n(CC(=O)O)c1=O)c1cccc(C(F)(F)F)c1 [Example 467, 3-(4-chlorophenyl)-1-[2-(1-methyl-1-[3-(trifluoromethyl)phenyl]ethylamino)-2-oxoethyl]-5-oxo-1,5-dihydro-4H-1,2,4-triazol-4-yl-acetic acid]
IC50 (human V1a receptor): 439 nM
IC50 (human V2 receptor): 26 nM

CC(C)(NC(=O)Cn1nc(-c2ccc(Cl)cc2)n(Cc2cccc(C(=O)O)c2)c1=O)c1cccc(C(F)(F)F)c1 [Example 471, 3-(3-(4-chlorophenyl)-1-[2-(1-methyl-1-[3-(trifluoromethyl)phenyl]ethylamino)-2-oxoethyl]-5-oxo-1,5-dihydro-4H-1,2,4-triazol-4-ylmethyl)-benzoic acid]
IC50 (human V1a receptor): 39 nM
IC50 (human V2 receptor): 2 nM

CN(C)C(=O)c1cccc(Cn2c(-c3ccc(Cl)cc3)nn(CC(=O)NC(C)(C)c3cccc(C(F)(F)F)c3)c2=O)c1 [Example 475, 3-(3-(4-chlorophenyl)-1-[2-(1-methyl-1-[3-(trifluoromethyl)phenyl]ethylamino)-2-oxoethyl]-5-oxo-1,5-dihydro-4H-1,2,4-triazol-4-ylmethyl)-N,N-dimethylbenzamide]
IC50 (human V1a receptor): 328 nM
IC50 (human V2 receptor): 20 nM

CC(C)(NC(=O)Cn1nc(-c2ccc(Cl)cc2)n(CC(N)=O)c1=O)c1cccc(C(F)(F)F)c1 [Example 476]
IC50 (human V1a receptor): 1230 nM
IC50 (human V2 receptor): 94 nM

CS(=O)(=O)c1ccccc1CNC(=O)Cn1nc(-c2ccc(Cl)cc2)n(Cc2ccccc2F)c1=O [Example 482, 2-[3-(4-chlorophenyl)-4-(2-fluorobenzyl)-5-oxo-4,5-dihydro-1H-1,2,4-triazol-1-yl]-N-[2-(methylsulphonyl)benzyl]-acetamide]
IC50 (human V1a receptor): 9 nM
IC50 (human V2 receptor): 250 nM

CC(C)(NC(=O)Cn1nc(-c2ccc(Cl)cc2)n(CC(=O)C(F)(F)F)c1=O)c1cccc(C(F)(F)F)c1 [Example 489, 2-[3-(4-chlorophenyl)-5-oxo-4-(3,3,3-trifluoro-2-oxopropyl)-4,5-dihydro-1H-1,2,4-triazol-1-yl]-N-{1-methyl-1-[3-(trifluoromethyl)phenyl]ethyl}-acetamide]
IC50 (human V1a receptor): 35 nM
IC50 (human V2 receptor): 2 nM

COCCn1c(-c2ccc(Cl)cc2)nn(CC(=O)NCC2(c3ccccc3F)CCCC2)c1=O [Example 494]
IC50 (human V1a receptor): 49 nM
IC50 (human V2 receptor): 257 nM

Cc1csc(-c2nn(CC(=O)NCc3cccc(C(F)(F)F)c3)c(=O)n2CC(C)C)c1Cl [Example 496, 2-[3-(3-chloro-4-methyl-2-thienyl)-4-isobutyl-5-oxo-4,5-dihydro-1H-1,2,4-triazol-1-yl]-N-[3-(trifluoromethyl)phenylmethyl]-acetamide]
IC50 (human V1a receptor): 166 nM
IC50 (human V2 receptor): 576 nM

O=C(Cn1cc(-c2ccc(Cl)s2)n(Cc2ccccc2F)c1=O)NCc1cccc(C(F)(F)F)c1 [Example 503]
IC50 (human V1a receptor): 25 nM
IC50 (human V2 receptor): 221 nM

O=C(Cn1cc(-c2ccc(Cl)cc2)n(CC2CC2)c1=O)NCCc1ccccc1C(F)(F)F [Example 508]
IC50 (human V1a receptor): 5 nM
IC50 (human V2 receptor): 336 nM

NC(=O)C(NC(=O)Cn1nc(-c2ccc(Cl)cc2)n(CC(O)C(F)(F)F)c1=O)c1cccc(C(F)(F)F)c1 (stereo not shown) [Example 509, 2-[3-(4-chlorophenyl)-5-oxo-4-(3,3,3-trifluoro-2-hydroxypropyl)-4,5-dihydro-1H-1,2,4-triazol-1-yl]-N-{2-amino-2-oxo-1-[3-(trifluoromethyl)phenyl]ethyl}-acetamide]
IC50 (human V1a receptor): 8 nM
IC50 (human V2 receptor): 4 nM

O=C(Cn1nc(-c2ccc(Cl)cc2)n(CC(O)C(F)(F)F)c1=O)NC(C(=O)NC1CC1)c1cccc(C(F)(F)F)c1 (stereo not shown) [Example 510, 2-([3-(4-chlorophenyl)-5-oxo-4-(3,3,3-trifluoro-2-hydroxypropyl)-4,5-dihydro-1H-1,2,4-triazol-1-yl]acetylamino)-N-cyclopropyl-2-[3-(trifluoromethyl)phenyl]-acetamide]
IC50 (human V1a receptor): 4 nM
IC50 (human V2 receptor): 7 nM

O=C(Cn1nc(-c2ccc(Cl)cc2)n(CC(O)C(F)(F)F)c1=O)NC(C(=O)N1CCOCC1)c1cccc(C(F)(F)F)c1 (stereo not shown) [Example 511, 2-[3-(4-chlorophenyl)-5-oxo-4-(3,3,3-trifluoro-2-hydroxypropyl)-4,5-dihydro-1H-1,2,4-triazol-1-yl]-N-{2-morpholin-4-yl-2-oxo-1-[3-(trifluoromethyl)phenyl]ethyl}-acetamide]
IC50 (human V1a receptor): 4 nM
IC50 (human V2 receptor): 11 nM
